Laboratory results published in patent publication US7855200B2, “Method for treatment of gastric ulcers and ulcers induced by aspirin” (Council of Scientific and Industrial Research, priority 2006, dated 2010).

Assays:
[1] = test system: Pylorus ligated rats; assay: Pylorus ligated ulcers; type: in vivo, albino rats; settings: 4 hours after pylorus ligation
Method in brief: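 Albino rats, fasted 48 h, dosed with test compound (25 mg/kg, or 50, 25, 15, 10 and 5 mg/kg) or ranitidine 50 mg/kg in 1% Tween 80 vehicle. Pylorus ligated under ether 1 h post-dose. Gastric contents collected 4 h later, centrifuged, and total acid titrated with 0.01N NaOH.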

[2] = test system: acetyl salicylic acid induced gastric lesions; assay: Acetyl salicylic acid (aspirin) induced gastric ulcer; type: in vivo, albino rats; parameters: Ulcer index Mean(SE): scale not given here; settings: rats, aspirin 200 mg/kg
Method in brief: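 Rats in groups of 6 were dosed orally once a day for five days with test compounds suspended in 1% Tween 80. A 1% Tween 80 control group and a ranitidine 50 mg/kg group were included. Aspirin at 200 mg/kg was given orally 30 min after each dose. After a 24 hour fast, the rats were killed by cervical dislocation. Stomachs were opened along the greater curvature, rinsed with lukewarm saline, examined under a dissecting microscope and scored for ulcer index.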

[3] = 5 mg/kg per orally daily for five days
[4] = 10 mg/kg per orally daily for five days
[5] = 15 mg/kg per orally daily for five days
[6] = 25 mg/kg per orally daily for five days
[7] = 50 mg/kg per orally daily for five days

For `COC(=O)C1OC(Oc2cc3oc(-c4ccccc4)cc(=O)c3cc2OC)C(O)C(O)C1O` (centres unmarked) [OA-5, 3,4,5-trihydroxy-6-(6-methoxy-4-oxo-2-phenyl-4-H-chromen-7-yoloxy) tetrahydro-pyran-2-carboxylicacid methyl ester], the “Acidity Total mEg” value ([1]; 5 mg/kg) was 45.50 (±1.25) mEg, the Gastric content ([1]; 5 mg/kg) was 2.06 (±0.28) and the Inhibition % ([1]; 5 mg/kg) was 46.80%. For the same molecule, the “Ulcer index Mean(SE)” value ([1]; 5 mg/kg) was 26.66 (±5.48), the pH ([1]; 5 mg/kg) was 3.25 (±0.17) and the “Acidity Total mEg” value ([1]; 10 mg/kg) was 42.90 (±2.37) mEg. For the same molecule, the Gastric content ([1]; 10 mg/kg) was 3.50 (±0.62), the Inhibition % ([1]; 10 mg/kg) was 59.78% and the “Ulcer index Mean(SE)” value ([1]; 10 mg/kg) was 21.66 (±3.04). For the same molecule, the pH ([1]; 10 mg/kg) was 3.58 (±0.24), the “Acidity Total mEg” value ([1]; 15 mg/kg) was 30.25 (±0.73) mEg and the Gastric content ([1]; 15 mg/kg) was 3.62 (±0.61). For the same molecule, the Inhibition % ([1]; 15 mg/kg) was 70.07%, the “Ulcer index Mean(SE)” value ([1]; 15 mg/kg) was 15.00 (±3.33) and the pH ([1]; 15 mg/kg) was 4.35 (±0.10). The “Acidity Total mEg” value ([1]; 25 mg/kg) was 30.18 (±0.50) m Eg, the Gastric content ([1]; 25 mg/kg) was 2.10 (±0.34) and the Inhibition % ([1]; 25 mg/kg) was 75.07%. For the same molecule, the “Ulcer index Mean(SE)” value ([1]; 25 mg/kg) was 12.49 (±3.74), the pH ([1]; 25 mg/kg) was 5.62 (±0.19) and the “Acidity Total mEg” value ([1]; 50 mg/kg) was 32.66 (±0.62) m Eg. For the same molecule, the Gastric content ([1]; 50 mg/kg) was 2.50 (±0.19), the Inhibition % ([1]; 50 mg/kg) was 79.85% and the “Ulcer index Mean(SE)” value ([1]; 50 mg/kg) was 10.10 (±2.04). The pH ([1]; 50 mg/kg) was 4.62 (±0.10), the Inhibition % [2, 3] was 18.75% and the “Ulcer index Mean(SE)” value [2, 3] was 36.66. For the same molecule, the Inhibition % [2, 4] was 40.98%, the “Ulcer index Mean(SE)” value [2, 4] was 26.66 and the Inhibition % [2, 5] was 40.98%. The “Ulcer index Mean(SE)” value [2, 5] was 26.66, the Inhibition % [2, 6] was 74.55% and the “Ulcer index Mean(SE)” value [2, 6] was 11.06. For the same molecule, the Inhibition % [2, 7] was 77.84% and the “Ulcer index Mean(SE)” value [2, 7] was 10.00.
